The test system of test [1] is epimastigotes of T. cruzi Arequipa strain. Put plainly: Screening against extracellular epimastigotes (resazurin). To be noted: Trypanosoma cruzi; Table S1; cultured epimastigote form of T. cruzi; read-out: Activity IC50. The format is cell-based, Trypanosoma cruzi. As for the experimental part: Trypanocidal activity against epimastigotes of T. cruzi Arequipa strain (MHOM/Pe/2011/Arequipa, discrete typing unit V) was tested as previously described. In short, 5 × 10^5 epimastigotes·mL^−1 were treated by adding the tested compounds at a concentration range from 100 to 0.2 µM in 96-well microplates (200 µL·well^−1) for 48 h. Subsequently, resazurin sodium salt (Sigma-Aldrich) was added to be incubated for further 24 h. Finally, the absorbance was measured, and the trypanocidal activity was expressed as the IC50 (inhibitory concentration 50) using GraphPad Prism 6 software. Each compound concentration was tested in triplicate in three independent experiments.
(Alamar Blue is a resazurin reagent that responds to reducing activity.)

The next test concerns Mammalian Vero cells. The test is described as follows: Cytotoxicity test on Vero cells (resazurin). The class given is cell-based. To be noted: Chlorocebus sabaeus; Table S1; cultured Vero cells; read-out: Toxicity IC50 Vero cell. The method, then: Mammalian Vero cells (EACC No. 84113001), cultured as previously reported, were used to determine the cytotoxicity of the tested compounds [56]. In short, 1.25 × 10^4 Vero cells·mL^−1 were treated by adding the compounds at a concentration range from 400 to 1 µM in 96-well microplates (200 µL·well^−1) at 37 °C for 48 h. Subsequently, resazurin sodium salt (Sigma-Aldrich) was added to be incubated for further 24 h. Finally, cell viability was determined following the same procedure as described to assess the trypanocidal activity in the epimastigotes. Each compound concentration was tested in triplicate in three independent experiments.

`N#C[Se]Cc1ccc(Br)cc1` [compound 1]: the figures for the IC50 (in test [1]; in the test with Mammalian Vero cells) were 39.1 ± 2.5 µM and 68.4 ± 3.7 µM, respectively.
On the same counts, the results for `Brc1ccc(C[Se][Se]Cc2ccc(Br)cc2)cc1` [compound 2] are 39.3 ± 4.1 µM and 30.7 ± 2.1 µM.
On to `N#C[Se]Cc1ccccc1` [compound 3], for which the IC50 – broadly, the midpoint of a concentration-inhibition curve – in the test with Mammalian Vero cells was 53.3 ± 2.5 µM.
On to `c1ccc(C[Se][Se]Cc2ccccc2)cc1` [compound 4], for which the IC50 in test [1] was found to be 35.4 ± 3.6 µM; with Mammalian Vero cells, 26.8 ± 1.3 µM.
Consider `N#C[Se]Cc1ccc([N+](=O)[O-])cc1` [compound 5], for which the IC50 was found to be 21.8 ± 2.2 µM in test [1] and 28.6 ± 2.4 µM in the test with Mammalian Vero cells.
Take `O=[N+]([O-])c1ccc(C[Se][Se]Cc2ccc([N+](=O)[O-])cc2)cc1` [compound 6]: the 50% inhibitory concentration (IC50) was found to be 13.6 ± 0.7 µM in test [1] and 28.2 ± 1.1 µM in the test with Mammalian Vero cells.
On the same counts, the results for `N#C[Se]Cc1ccc(C(F)(F)F)cc1` [compound 7] are 34.1 ± 2.6 µM and 50.5 ± 3.8 µM.
In the same order, the values of `CSc1ccc(C[Se]C#N)cc1` [compound 9] are 11.3 ± 0.7 µM and 67.3 ± 4.9 µM.
As for `Cc1ccc(C[Se][Se]Cc2ccc(C)cc2)cc1` [compound 12], the IC50 came to 19.4 ± 1.5 µM in test [1] and 4.9 ± 0.7 µM in the test on Mammalian Vero cells.
As for `N#C[Se]Cc1ccc(C#N)cc1` [compound 13], the IC50 in test [1] amounted to 1.9 ± 0.7 µM; with Mammalian Vero cells, 12.8 ± 0.7 µM.
As for `N#Cc1ccc(C[Se][Se]Cc2ccc(C#N)cc2)cc1` [compound 14], the values for the IC50 (in test [1]; in the test on Mammalian Vero cells) were 27.9 ± 2.9 µM and 8.9 ± 1.5 µM, respectively.
For `O=[N+]([O-])c1ccccc1C[Se][Se]Cc1ccccc1[N+](=O)[O-]` [compound 16], the half-maximal inhibitory concentration (IC50) in test [1] worked out at 18.4 ± 2.3 µM; with Mammalian Vero cells, 18.9 ± 2.4 µM.
On the same counts, the results for `N#C[Se]Cc1cccc([N+](=O)[O-])c1` [compound 17] are 37.4 ± 2.6 µM and 81.2 ± 4.8 µM.
On to `O=[N+]([O-])c1cccc(C[Se][Se]Cc2cccc([N+](=O)[O-])c2)c1` [compound 18], for which the IC50 in test [1] is 1.5 ± 0.3 µM; in the test with Mammalian Vero cells it was 7.3 ± 1.1 µM.
Regarding `N#C[Se]Cc1ccccc1C#N` [compound 19], the IC50 in test [1] turned out to be 29.1 ± 3 µM; with Mammalian Vero cells it was 18.5 ± 0.7 µM.
Consider `N#Cc1cccc(C[Se][Se]Cc2cccc(C#N)c2)c1` [compound 22], for which the IC50 in test [1] turned out to be 39.7 ± 2.6 µM; with Mammalian Vero cells it was 29.8 ± 3 µM.
As to `N#C[Se]Cc1cc2c(cc1Br)OCO2` [compound 23], the IC50 in test [1] worked out at 14.1 ± 0.9 µM; in the test with Mammalian Vero cells, 38.9 ± 2.1 µM.
Turning to `Brc1cc2c(cc1C[Se][Se]Cc1cc3c(cc1Br)OCO3)OCO2` [compound 24], the IC50 in test [1] stood at 45.7 ± 2.6 µM; in the test with Mammalian Vero cells, 61.8 ± 4.1 µM.
On to `N#C[Se]Cc1cccc2cccnc12` [compound 25], for which the IC50 in test [1] was 10.3 ± 0.8 µM; with Mammalian Vero cells it was 12.6 ± 0.3 µM.
Consider `c1cnc2c(C[Se][Se]Cc3cccc4cccnc34)cccc2c1` [compound 26], for which the IC50 came out at 6.7 ± 0.4 µM in test [1] and 19.6 ± 1 µM in the test with Mammalian Vero cells.
In the same order, the values of `N#C[Se]Cc1ccc2ccccc2n1` [compound 27] are 99.5 ± 6.1 µM and 68.3 ± 6.7 µM.
For the compound `N#C[Se]Cc1c2ccccc2cc2ccccc12` [compound 28], the IC50 in test [1] turned out to be 21.4 ± 0.9 µM; in the test on Mammalian Vero cells it was 169 ± 9.7 µM.
With `N#C[Se]Cc1nc2ccccc2nc1C[Se]C#N` [compound 29], the 50% inhibitory concentration (IC50) in test [1] is 32.1 ± 1.1 µM; with Mammalian Vero cells, 67.4 ± 3.5 µM.
As to `COc1cc2oc(=O)cc(C[Se]C#N)c2cc1OC` [compound 30], the IC50 in test [1] was 30.9 ± 1.4 µM; in the test on Mammalian Vero cells, 109 ± 10.5 µM.
Take `N#C[Se]CC(=O)C12CC3CC(CC(C3)C1)C2` [compound 31]: the IC50 came out at 13.2 ± 0.8 µM in test [1] and 85.5 ± 4.9 µM with Mammalian Vero cells.
In the case of `O=S(=O)(Nc1ccc([Se][Se]c2ccc(NS(=O)(=O)c3ccc(Br)cc3)cc2)cc1)c1ccc(Br)cc1` [compound 33], the IC50 came out at 10.2 ± 0.8 µM in test [1] and 49.7 ± 3.2 µM with Mammalian Vero cells.
Take `O=S(=O)(Nc1ccc([Se][Se]c2ccc(NS(=O)(=O)c3ccc(Cl)cc3)cc2)cc1)c1ccc(Cl)cc1` [compound 34]: the IC50 in test [1] is 41.3 ± 2.1 µM; in the test with Mammalian Vero cells, 29.8 ± 3.4 µM.
As for `O=S(=O)(Nc1ccc([Se][Se]c2ccc(NS(=O)(=O)c3ccccc3Cl)cc2)cc1)c1ccccc1Cl` [compound 35], the results for the IC50 (in test [1]; in the test with Mammalian Vero cells) were 28.4 ± 1.7 µM and 69 ± 5.3 µM, respectively.
For `O=S(=O)(Nc1ccc([Se][Se]c2ccc(NS(=O)(=O)c3ccc(F)cc3)cc2)cc1)c1ccc(F)cc1` [compound 36], the IC50 in test [1] came out at 11.1 ± 0.8 µM; in the test with Mammalian Vero cells, 70.8 ± 4.8 µM.
In the same order, the values of `O=S(=O)(Nc1ccc([Se][Se]c2ccc(NS(=O)(=O)c3ccccc3F)cc2)cc1)c1ccccc1F` [compound 37] are 46.1 ± 3.1 µM and 39.6 ± 3.1 µM.
Turning to `COc1ccc(S(=O)(=O)Nc2ccc([Se][Se]c3ccc(NS(=O)(=O)c4ccc(OC)cc4)cc3)cc2)cc1` [compound 38], the IC50 in test [1] came out at 27.8 ± 1.6 µM; in the test on Mammalian Vero cells, 40.3 ± 2.5 µM.
Consider `O=[N+]([O-])c1ccc(S(=O)(=O)Nc2ccc([Se][Se]c3ccc(NS(=O)(=O)c4ccc([N+](=O)[O-])cc4)cc3)cc2)cc1` [compound 39], for which the values for the concentration for half-maximal inhibition (IC50) (in test [1]; in the test on Mammalian Vero cells) were 17.1 ± 1.3 µM and 11.7 ± 2.7 µM, respectively.
On the same counts, the results for `N#Cc1ccc(S(=O)(=O)Nc2ccc([Se][Se]c3ccc(NS(=O)(=O)c4ccc(C#N)cc4)cc3)cc2)cc1` [compound 40] are 3.8 ± 0.1 µM and 16 ± 1.7 µM.
On the same counts, the results for `O=S(=O)(Nc1ccc([Se][Se]c2ccc(NS(=O)(=O)c3ccccc3)cc2)cc1)c1ccccc1` [compound 41] are 6.8 ± 0.7 µM and 26.5 ± 1.4 µM.
Turning to `O=S(=O)(Nc1ccc([Se][Se]c2ccc(NS(=O)(=O)c3ccc(C(F)(F)F)cc3)cc2)cc1)c1ccc(C(F)(F)F)cc1` [compound 42], the results for the IC50 (in test [1]; with Mammalian Vero cells) were 5.9 ± 0.4 µM and 36 ± 2.3 µM, respectively.
Take `O=S(=O)(Nc1ccc([Se][Se]c2ccc(NS(=O)(=O)c3ccc4ccccc4c3)cc2)cc1)c1ccc2ccccc2c1` [compound 44]: the values for the IC50 (in test [1]; in the test on Mammalian Vero cells) were 5.6 ± 1.1 µM and 30.8 ± 2.2 µM, respectively.
In the case of `O=S(=O)(Nc1ccc([Se][Se]c2ccc(NS(=O)(=O)c3cccc4cccnc34)cc2)cc1)c1cccc2cccnc12` [compound 45], the concentration for half-maximal inhibition (IC50) was 1.7 ± 0.3 µM in test [1] and 14.3 ± 1.1 µM in the test with Mammalian Vero cells.
Consider `O=S(=O)(Nc1ccc([Se][Se]c2ccc(NS(=O)(=O)c3cccs3)cc2)cc1)c1cccs1` [compound 48], for which the IC50 in test [1] is 1.8 µM; in the test on Mammalian Vero cells, 15.7 ± 1.1 µM.
